pEC50: −log10 of the molar value.
These compounds were tested on HBV rcDNA in HepDE19 cells (assay: HepDE19 assay with bDNA quantitation of HBV rcDNA). Details: HepDE19 cells, inhibition of rcDNA formation, 7 day incubation, top concentration 25 μM; read-out: DE-19 bDNA EC50.
Type: cell-based, hepatitis B virus (HBV)

Question: How did the pEC50 turn out when `COC(=O)NC1c2c(F)ccc(C(=O)Nc3ccc(F)c(Cl)c3)c2CC1(F)F` (stereo not drawn) [Compound 210, O-methyl, N-((4-((3-chloro-4-fluorophenyl)carbamoyl)-2,2,7-trifluoro-2,3-dihydro-1H-inden-1-yl) carbamate] was run?
Answer: 4.82

Question: With `COC(=O)NC1(C)CCc2c(C(=O)Nc3ccc(F)c(Cl)c3)ccc(F)c21` (stereo not drawn) [Compound 214, O-methyl, N-(4-((3-chloro-4-fluorophenyl)carbamoyl)-7-fluoro-1-methyl-2,3-dihydro-1H-inden-1-yl) carbamate] as the compound, how does the pEC50 read?
Answer: 5.59

Question: With `COC(=O)NC1(C)CCc2c(C(=O)Nc3ccc(F)c(Cl)c3)ccc(F)c21` (stereo not drawn) [Compound 217, O-Methyl, N-(4-((3-chloro-4-fluorophenyl)carbamoyl)-7-fluoro-1-methyl-2,3-dihydro-1H-inden-1-yl) carbamate] as the compound, how does the pEC50 read?
Answer: 4.92

Question: With `COC(=O)NC1(C)CCc2c(C(=O)Nc3ccc(F)c(Cl)c3)ccc(F)c21` (stereo not drawn) [Compound 218, O-Methyl, N-(4-((3-chloro-4-fluorophenyl)carbamoyl)-7-fluoro-1-methyl-2,3-dihydro-1H-inden-1-yl) carbamate] as the compound, how does the pEC50 read?
Answer: 5.72

Question: How did the pEC50 turn out when `CC1(NC(=O)OCc2ccccn2)CCc2c(C(=O)Nc3ccc(F)c(Cl)c3)ccc(F)c21` (stereo not drawn) [Compound 219, O-pyridin-2-ylmethyl, N-(4-((3-chloro-4-fluorophenyl)carbamoyl)-7-fluoro-1-methyl-2,3-dihydro-1H-inden-1-yl) carbamate] was run?
Answer: 5.82

Question: With `O=C(NC1c2c(F)ccc(C(=O)Nc3ccc(F)c(Cl)c3)c2CC1(F)F)OCc1ccccn1` (stereo not drawn) [Compound 220, O-pyridin-2-ylmethyl, N-(4-((3-chloro-4-fluorophenyl)carbamoyl)-2,2,7-trifluoro-2,3-dihydro-1H-inden-1-yl) carbamate] as the compound, how does the pEC50 read?
Answer: 5.00

Question: With `CC1(NC(=O)OCc2ccccn2)CCc2c(C(=O)Nc3ccc(F)c(Cl)c3)ccc(F)c21` (stereo not drawn) [Compound 224, O-Pyridin-2-ylmethyl, N-(4-((3-chloro-4-fluorophenyl)carbamoyl)-7-fluoro-1-methyl-2,3-dihydro-1H-inden-1-yl) carbamate] as the compound, how does the pEC50 read?
Answer: 4.96

Question: How did the pEC50 turn out when `CC1(NC(=O)OCc2ccccn2)CCc2c(C(=O)Nc3ccc(F)c(Cl)c3)ccc(F)c21` (stereo not drawn) [Compound 225, O-Pyridin-2-ylmethyl, N-(4-((3-chloro-4-fluorophenyl)carbamoyl)-7-fluoro-1-methyl-2,3-dihydro-1H-inden-1-yl) carbamate] was run?
Answer: 5.70

Question: `O=C(N[C@H]1CCc2c(C(=O)Nc3ccc(F)c(Cl)c3)cccc21)OC1CC1` [Compound 229, O-cyclopropyl, N-(S)-(4-((3-chloro-4-fluorophenyl)carbamoyl)-2,3-dihydro-1H-inden-1-yl) carbamate] was tested. Which pEC50 did it give?
Answer: 6.44

Question: With `O=C(N[C@H]1CCc2c(C(=O)Nc3ccc(F)c(Cl)c3)ccc(F)c21)OCc1nnco1` [Compound 231, O-(1,3,4-oxadiazol-2-yl)methyl, N-(S)-(4-((3-chloro-4-fluorophenyl)carbamoyl)-7-fluoro-2,3-dihydro-1H-inden-1-yl) carbamate] as the compound, how does the pEC50 read?
Answer: 6.89

Same assay, conditions: Hepatitis B virus, HepDE19, 168 h, HepDE19 cells, inhibition of rcDNA formation, 7 day incubation, top concentration 25 μM; read-out: DE-19 bDNA EC50

Question: `Cc1cc(NC(=O)c2ccc(F)c3c2OCC3NC(=O)OCc2ccccn2)ccc1F` (stereo not drawn) [Compound 205, O-Pyridin-2-ylmethyl, N-(4-fluoro-7-((4-fluoro-3-methylphenyl)carbamoyl)-2,3-dihydrobenzofuran-3-yl) carbamate] was tested. Which pEC50 did it give?
Answer: 5.43

Question: How did the pEC50 turn out when `O=C(NC1CC1)N[C@H]1CCc2c(C(=O)Nc3ccc(F)c(Cl)c3)ccc(F)c21` [Compound 209, (S)—N-(3-Chloro-4-fluorophenyl)-1-(3-cyclopropylureido)-7-fluoro-2,3-dihydro-1H-indene-4-carboxamide] was run?
Answer: 6.48

Question: With `O=C(Nc1ccc(F)c(Cl)c1)c1cccc2c1CC[C@@H]2NS(=O)(=O)C1CC1` [Compound 216, (S)—N-(3-chloro-4-fluorophenyl)-1-(cyclopropanesulfonamido)-2,3-dihydro-1H-indene-4-carboxamide] as the compound, how does the pEC50 read?
Answer: 7.40

Question: With `O=C(Nc1ccc(F)c(Cl)c1)c1ccc(F)c2c1CC[C@@H]2NS(=O)(=O)CC1CC1` [Compound 221, (S)—N-(3-Chloro-4-fluorophenyl)-1-((cyclopropylmethyl)sulfonamido)-7-fluoro-2,3-dihydro-1H-indene-4-carboxamide] as the compound, how does the pEC50 read?
Answer: 6.68

Question: With `O=C(Nc1ccc(F)c(Cl)c1)c1ccc(F)c2c1CC[C@@H]2NS(=O)(=O)Cc1ccccc1` [Compound 222, (S)—N-(3-Chloro-4-fluorophenyl)-7-fluoro-1-((phenylmethyl)sulfonamido)-2,3-dihydro-1H-indene-4-carboxamide] as the compound, how does the pEC50 read?
Answer: 6.52

Question: `O=C(N[C@H]1CCc2c(C(=O)Nc3ccc(F)c(Cl)c3)ccc(F)c21)OC1CC1` [Compound 226, O-cyclopropyl, N—(S)-(4-((3-chloro-4-fluorophenyl)carbamoyl)-7-fluoro-2,3-dihydro-1H-inden-1-yl)carbamate] was tested. Which pEC50 did it give?
Answer: 6.62

Question: `CNS(=O)(=O)N[C@H]1CCc2c(C(=O)Nc3ccc(F)c(Cl)c3)ccc(F)c21` [Compound 227, (S)—N-(3-Chloro-4-fluorophenyl)-7-fluoro-1-((N-methylsulfamoyl)amino)-2,3-dihydro-1H-indene-4-carboxamide] was tested. Which pEC50 did it give?
Answer: 6.37

Question: `O=C(Nc1ccc(F)c(Cl)c1)c1ccc(F)c2c1CC[C@@H]2NS(=O)(=O)N1CCOCC1` [Compound 228, (S)—N-(3-Chloro-4-fluorophenyl)-7-fluoro-1-(morpholine-4-sulfonamido)-2,3-dihydro-1H-indene-4-carboxamide] was tested. Which pEC50 did it give?
Answer: 6.70

Question: `CNS(=O)(=O)N[C@H]1CCc2c(C(=O)Nc3ccc(F)c(Cl)c3)cccc21` [Compound 230, (S)-N-(3-chloro-4-fluorophenyl)-1-((N-methylsulfamoyl)amino)-2,3-dihydro-1H-indene-4-carboxamide] was tested. Which pEC50 did it give?
Answer: 6.44

Question: `CCS(=O)(=O)N[C@H]1CCc2c(C(=O)Nc3ccc(F)c(Cl)c3)ccc(F)c21` [Compound 232, (S)—N-(3-Chloro-4-fluorophenyl)-1-(ethylsulfonamido)-7-fluoro-2,3-dihydro-1H-indene-4-carboxamide] was tested. Which pEC50 did it give?
Answer: 6.62

Question: With `CCCS(=O)(=O)N[C@H]1CCc2c(C(=O)Nc3ccc(F)c(Cl)c3)ccc(F)c21` [Compound 233, (S)—N-(3-Chloro-4-fluorophenyl)-7-fluoro-1-(propylsulfonamido)-2,3-dihydro-1H-indene-4-carboxamide] as the compound, how does the pEC50 read?
Answer: 6.48

Question: How did the pEC50 turn out when `CC(C)CS(=O)(=O)N[C@H]1CCc2c(C(=O)Nc3ccc(F)c(Cl)c3)ccc(F)c21` [Compound 234, (S)—N-(3-Chloro-4-fluorophenyl)-7-fluoro-1-((2-methylpropyl)sulfonamido)-2,3-dihydro-1H-indene-4-carboxamide] was run?
Answer: 6.47

Question: How did the pEC50 turn out when `CNC(=O)NC1c2c(F)ccc(C(=O)Nc3ccc(F)c(Cl)c3)c2CC1OC` (stereo not drawn) [Compound 235, N-(3-chloro-4-fluorophenyl)-7-fluoro-2-methoxy-1-(3-methylureido)-2,3-dihydro-1H-indene-4-carboxamide] was run?
Answer: 5.35

Question: With `COC(=O)NC1c2c(F)ccc(C(=O)Nc3ccc(F)c(Cl)c3)c2CC1OC` (stereo not drawn) [Compound 236, O-methyl, N-(4-((3-chloro-4-fluorophenyl)carbamoyl)-7-fluoro-2-methoxy-2,3-dihydro-1H-inden-1-yl)carbamate] as the compound, how does the pEC50 read?
Answer: 6.47

Question: `CC(C)NS(=O)(=O)N[C@H]1CCc2c(C(=O)Nc3ccc(F)c(Cl)c3)ccc(F)c21` [Compound 237, (S)-N-(3-chloro-4-fluorophenyl)-7-fluoro-1-((N-isopropylsulfamoyl)amino)-2,3-dihydro-1H-indene-4-carboxamide] was tested. Which pEC50 did it give?
Answer: 6.24

Question: How did the pEC50 turn out when `CC(C)S(=O)(=O)N[C@H]1CCc2c(C(=O)Nc3ccc(F)c(Cl)c3)ccc(F)c21` [Compound 238, (S)—N-(3-Chloro-4-fluorophenyl)-7-fluoro-1-((1-methylethyl)sulfonamido)-2,3-dihydro-1H-indene-4-carboxamide] was run?
Answer: 6.72

Question: `O=C(Nc1ccc(F)c(Cl)c1)c1ccc(F)c2c1CC[C@@H]2NS(=O)(=O)C1CCCC1` [Compound 239, (S)—N-(3-Chloro-4-fluorophenyl)-1-(cyclopentanesulfonamido)-7-fluoro-2,3-dihydro-1H-indene-4-carboxamide] was tested. Which pEC50 did it give?
Answer: 6.62

Question: `O=C(Nc1ccc(F)c(Cl)c1)c1ccc(F)c2c1CC[C@@H]2NS(=O)(=O)C1CCCCC1` [Compound 240, (S)—N-(3-Chloro-4-fluorophenyl)-1-(cyclohexanesulfonamido)-7-fluoro-2,3-dihydro-1H-indene-4-carboxamide] was tested. Which pEC50 did it give?
Answer: 6.29

Question: `CNC(=O)NC1CC(C)(C)c2c(C(=O)Nc3ccc(F)c(Cl)c3)ccc(F)c21` (stereo not drawn) [Compound 241, N-(3-chloro-4-fluorophenyl)-7-fluoro-3,3-dimethyl-1-(3-methylureido)-2,3-dihydro-1H-indene-4-carboxamide] was tested. Which pEC50 did it give?
Answer: 4.62

Question: With `O=C(Nc1ccc(F)c(Cl)c1)c1cccc2c1CC[C@@H]2NS(=O)(=O)NC1CC1` [Compound 242, (S)-N-(3-chloro-4-fluorophenyl)-1-((N-cyclopropylsulfamoyl)amino)-2,3-dihydro-1H-indene-4-carboxamide] as the compound, how does the pEC50 read?
Answer: 6.24

Question: How did the pEC50 turn out when `O=C(Nc1ccc(F)c(Cl)c1)c1ccc(F)c2c1CC[C@@H]2NS(=O)(=O)NC1CC1` [Compound 243, (S)-N-(3-chloro-4-fluorophenyl)-1-((N-cyclopropylsulfamoyl)amino)-7-fluoro-2,3-dihydro-1H-indene-4-carboxamide] was run?
Answer: 6.80

Same assay, conditions: Hepatitis B virus, HepDE19, 168 h, read-out: DE-19 bDNA EC50 (μM), HepDE19 cells, inhibition of rcDNA formation, 7 day incubation, top concentration 25 μM

Question: With `O=C1CCC[C@@H](COC(=O)N[C@H]2CCc3c(C(=O)Nc4ccc(F)c(Cl)c4)ccc(F)c32)N1` [Compound 212, O—((S)-6-Oxopiperidin-2-yl)methyl, N—((S)-4-((3-chloro-4-fluorophenyl)carbamoyl)-7-fluoro-2,3-dihydro-1H-inden-1-yl) carbamate] as the compound, how does the EC50 read?
Answer: 0.27 µM

Question: For `O=C1CC(COC(=O)N[C@H]2CCc3c(C(=O)Nc4ccc(F)c(Cl)c4)ccc(F)c32)N1` (stereo partly drawn) [Compound 213, O-(4-Oxoazetidin-2-yl)methyl, N—((S)-4-((3-chloro-4-fluorophenyl)carbamoyl)-7-fluoro-2,3-dihydro-1H-inden-1-yl) carbamate], which EC50 is on record?
Answer: 0.33 µM

Source: patent US11098010B2 (priority 2017, dated 2021)
